SMILES strings stand for the structures.

Experiment [1] deals with T1, Poly [ADP-ribose] polymerase tankyrase-2 (Homo sapiens, UniProt Q9H2K2).
T1 sequence (Q9H2K2 whole entry): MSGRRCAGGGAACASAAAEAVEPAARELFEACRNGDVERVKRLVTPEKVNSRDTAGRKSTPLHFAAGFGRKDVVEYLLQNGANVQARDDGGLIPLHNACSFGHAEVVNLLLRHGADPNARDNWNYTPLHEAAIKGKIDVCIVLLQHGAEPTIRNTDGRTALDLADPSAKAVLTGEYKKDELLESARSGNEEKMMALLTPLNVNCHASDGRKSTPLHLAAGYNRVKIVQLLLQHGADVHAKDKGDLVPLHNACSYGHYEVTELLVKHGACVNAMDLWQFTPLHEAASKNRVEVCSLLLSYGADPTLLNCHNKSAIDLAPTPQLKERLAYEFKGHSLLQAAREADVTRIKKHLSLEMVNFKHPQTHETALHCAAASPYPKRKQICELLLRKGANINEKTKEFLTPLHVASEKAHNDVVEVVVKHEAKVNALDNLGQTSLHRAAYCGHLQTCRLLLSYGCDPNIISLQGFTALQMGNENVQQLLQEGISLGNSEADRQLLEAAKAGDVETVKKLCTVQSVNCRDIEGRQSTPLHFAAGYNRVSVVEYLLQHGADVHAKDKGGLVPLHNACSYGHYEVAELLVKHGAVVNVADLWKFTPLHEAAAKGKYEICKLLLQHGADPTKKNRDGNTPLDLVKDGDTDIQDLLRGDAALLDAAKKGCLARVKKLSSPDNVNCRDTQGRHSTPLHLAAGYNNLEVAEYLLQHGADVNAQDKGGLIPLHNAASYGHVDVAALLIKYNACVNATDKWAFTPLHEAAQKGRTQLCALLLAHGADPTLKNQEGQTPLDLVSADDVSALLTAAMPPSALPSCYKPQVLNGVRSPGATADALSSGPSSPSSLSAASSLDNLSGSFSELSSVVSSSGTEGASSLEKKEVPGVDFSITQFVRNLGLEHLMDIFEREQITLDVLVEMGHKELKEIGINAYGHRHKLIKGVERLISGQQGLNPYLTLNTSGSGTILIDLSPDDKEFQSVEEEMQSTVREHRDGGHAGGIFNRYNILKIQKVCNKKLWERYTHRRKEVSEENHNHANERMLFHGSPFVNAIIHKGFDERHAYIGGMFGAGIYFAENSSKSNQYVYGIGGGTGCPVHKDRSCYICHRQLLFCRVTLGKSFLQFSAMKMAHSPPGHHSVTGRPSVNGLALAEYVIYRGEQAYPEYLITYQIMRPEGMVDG
Description: Inhibition of human TNKS2 (873 to 1162 residues) assessed as reduction in NAD+ consumption by fluorescence assay.

Experiment [2] deals with T1, Poly [ADP-ribose] polymerase tankyrase-2. Description: Inhibition of TNKS2 (unknown origin) expressed in HEK293 cells assessed as inhibition of Wnt3a-induced Wnt/beta-catenin signaling after 24 hrs by luciferase reporter gene assay. In kind it is cell-based. Background: A reporter such as luciferase makes a cellular process visible.
Experiment [3] has the same target. Description: Inhibition of TNKS2 (unknown origin) transfected in human SW480 cells assessed as inhibition of Wnt3a-induced Wnt/beta-catenin signaling after 48 hrs by ST-luciferase reporter gene assay. The format is cell-based.

With `O=c1[nH]c2ccccc2n1[C@H]1C[C@H](c2nnc(-c3ccncn3)n2-c2ccccc2Cl)C1`, the figures for the 50% inhibitory concentration (IC50) in experiment [1], in experiment [2] and in experiment [3] were 9.8 nM, 200 nM and 410 nM, respectively.

As for `N#Cc1ccc2c(c1)[nH]c(=O)n2[C@H]1CC[C@H](c2nnc(-c3ccncn3)n2-c2ccccc2Cl)CC1`, the concentration for half-maximal inhibition (IC50) (usually the concentration that gives 50% inhibition) was found to be 330 nM in experiment [1], 120 nM in experiment [2] and 1490 nM in experiment [3].

On to `O=c1[nH]c2ccccc2n1[C@H]1CC[C@H](c2nnc(-c3ccncn3)n2-c2ccccc2Cl)CC1`, for which the figures for the IC50 in experiment [1], in experiment [2] and in experiment [3] were 430 nM, 1060 nM and 1800 nM, respectively.

`N#Cc1ccc2c(c1)[nH]c(=O)n2-c1ccc(-c2nnc(-c3ccncn3)n2-c2ccccc2Cl)cc1`: the values for the concentration for half-maximal inhibition (IC50) in experiment [1] and in experiment [2] were 340 nM and more than 10000 nM, respectively.
